Results reported in a melting point compilation (Tetko et al.; mined from patent text by program, amines drawn as free bases though some values may be those of a salt).

Compound	melting point
C[C@@H](Nc1ncnc2cc(F)c([N+](=O)[O-])cc12)c1ccccc1	203 °C
CCOCc1nc2c(N)nc3cc(-c4cccnc4)ccc3c2n1CCCCNC(=O)c1ccc(C(OCCN(C)C)c2ccccc2)cc1 (stereo unspecified)	157 to 161 °C
CN(C)c1ccc(CSC2=NC(C)(C)C(SCc3ccc(N(C)C)cc3)=N2)cc1	91 to 92 °C
COc1cccc(OC)c1C(=O)Nc1nnc(-c2ccc(Cl)cc2)s1	238 to 240 °C
CCCCCCCCCCCC(O)CC1COC1=O (stereo unspecified)	44.5 to 46 °C
CC(=O)Nc1c(OC(C)=O)cc(C)cc1[N+](=O)[O-]	163 to 165 °C
C#CCN(C(=O)C(Cl)Cl)C(C)C	58 to 59 °C
CSc1nnc(-c2ccc(Cl)nc2)s1	136 °C
COc1cccc(OC)c1C(=O)Nc1nnc(C2SCCCS2)s1	200 to 208 °C
CCCN1CCC(c2ccccc2)=C(C(=O)NCc2ccccc2)C1	96 to 98 °C
CCOC(=O)c1cc(NC(=O)C(Cc2ccccc2)NC(=O)OC(C)(C)C)c[nH]1 (stereo unspecified)	148 to 151 °C
O=C(NCCCc1ccncc1)N(CCC12CC3CC(CC(C3)C1)C2)CC(F)(F)F	106 to 107 °C
O=C(Nc1ccccc1)N1CC2CC(CN(Cc3ccc(Cl)cc3)C2)C1	187 °C
COC(C)=CC(=O)NC1CCCCCCC1	116 °C
Cc1[nH]c(C)c(-c2ccc(Oc3ccc(C(F)(F)F)cc3)cc2)c(=O)c1Br	304 to 305 °C
O=C(c1cccc(F)c1)N1CC2CC2(c2ccccc2)C1 (stereo unspecified)	68 to 69.5 °C
COc1ccc2[nH]c(SCc3nccc(N4CCCCC4)n3)nc2c1	145 to 147 °C
CS(=O)(=O)c1ccc(-c2cnn(CC(F)(F)F)c(=O)c2OC2CCCC2)cc1	148 to 150 °C
Cc1nc(N2CCN(CC(C)C)C2=O)sc1C(=O)NCc1cocn1	115 to 118 °C
O=C(c1ccccc1)N1CCC(c2nn(-c3ccccc3)c3cc(F)ccc23)CC1	149 to 151 °C
CCCCC(=O)OCCOCn1cnc2c(=O)[nH]c(N)nc21	215 to 217 °C
CCCCN(CCCC)C(=O)/C=C/c1ccc(Cn2c(-c3ccc(O)cc3)c(C)c3cc(O)ccc32)cc1	126 to 128 °C
CCCCCCCCCCCCCCCCCCNC(=O)NN	100 °C
Nc1cc(NC(=O)Nc2ccccc2)ccn1	> 290 °C

Compound	melting point
Cc1nc2ncnn2c(Cl)c1CCCl	81 to 82 °C
CC(Cn1nnc2ccccc21)(NC(=O)OC1C2CC3CC(C2)CC1C3)C(=O)NCCc1ccccc1 (stereo unspecified)	180 to 185 °C
N#Cc1c[nH]c(-c2ccc(Cl)cc2)c1	174 to 175 °C
CCOC(=O)C(C#N)=NOC(=O)OC	69 to 71 °C
COC(=O)c1c(N)cc(Cl)cc1[N+](=O)[O-]	114 to 116 °C
CS(=O)(=O)c1ccc(-c2cnn(C3C4CC5CC(C4)CC3C5)c(=O)c2-c2ccc(F)cc2)cc1 (stereo unspecified)	195 to 197 °C
COc1cc(C(O)CN)cc(OC)c1OC (stereo unspecified)	141 °C
Cc1ccc(-c2ccccc2CC(N)=NO)cc1	127 to 128 °C
CC(C)(C)C(NC(=O)c1ccc(Cl)cc1)NC(=NS(=O)(=O)c1ccccc1)Nc1cccnc1 (stereo unspecified)	196 to 197 °C
NS(=O)(=O)CCCNc1nc(Cl)ncc1Cl	186 to 187 °C
c1coc(-c2ccc(-c3ccco3)cc2)c1	149 to 150 °C
Nc1ccc(CN2CCN(c3ccccc3)CC2)cc1	105 °C
COc1ccc(CCN(CCc2cccc(C(F)(F)F)c2)C(=O)CCCCC(N)=O)cc1OC	125 to 126 °C
COc1cc(C(=N)N)ccc1OCc1ccc(CN2C(=O)c3ccccc3C2=O)cc1	228 to 230 °C
CC1(C)CCC(C)(C)c2cc(O)c(N)cc21	225 °C
Nc1cccc(Cn2c(-c3ccc(NC(=O)c4ccccc4)cc3)ccc2-c2ccccc2Cl)n1	196 to 198 °C
FC(F)(F)c1nc(-c2ccc(OCCCn3ccnc3)cc2)no1	73 to 73.5 °C
Fc1ccc(-c2cc(C(F)(F)F)n3ncc(-c4ccncc4)c3n2)cc1Cl	265 °C
CCNc1nc(=S)n(Cc2ccc(OC)c(OC3CCCC3)c2)c2nc[nH]c12	72 to 77 °C
COc1ccccc1S(=O)(=O)c1c(NS(=O)(=O)c2ccc(C(C)(C)C)cc2)ncnc1OCCOc1ncc(Br)cn1	208 °C
O=C(c1ccc(OCC2CC2)c2oc3ccccc3c12)[NH+]([O-])c1ccncc1 (stereo unspecified)	266 to 268 °C
Clc1cc2c(cc1Br)C(=C1CCNCC1)c1ncccc1CO2	198 to 199 °C
CCON1CC1C(N)=O (stereo unspecified)	50 to 54 °C
CCNC(=O)c1ccc(F)cc1	73.2 to 76.3 °C

Compound	melting point
O=C(c1ccc(-c2cc3cnc(Nc4cccc(Cl)c4)nc3[nH]2)cc1)N1CCOCC1	> 250 °C
CN(C)S(=O)(=O)c1cc2c(c(Cl)c1Cl)OC(C(=O)OCOC(=O)C(C)(C)C)C2 (stereo unspecified)	113 to 114 °C
CCOC(=O)c1ncn2c1C(C)N=C(c1ccccc1)c1cc(C#C[Si](C)(C)C)ccc1-2 (stereo unspecified)	160 to 162 °C
C=CCOc1ccc(-c2cc3[nH]c4c(c(=O)n3n2)CN(C2CCCCC2)C4=O)cc1	> 320 °C
ICCCCCCc1ccc(-c2ccccc2)cc1	77 to 77.5 °C
Cn1cc(C#N)c(Nc2ccc([N+](=O)[O-])cc2N)n1	204 °C
CN1C(=O)C(c2ccc(Cl)cc2)S(=O)C1c1cccnc1 (stereo unspecified)	149 to 153 °C
CC(C)(C)OC(=O)NCC(O)c1cccs1 (stereo unspecified)	101 to 102 °C
CCN(CC)C(=O)Nc1ccc(S(=O)(=O)N2C(=O)C(C)(c3cc(C(=O)NCc4cccnc4)ccc3Cl)c3cc(Cl)ccc32)c(OC)c1 (stereo unspecified)	148 °C
O=C1NC(=O)C(c2cccs2)O1 (stereo unspecified)	138 to 140 °C
ON=Cc1c(-c2ccccc2Br)ccc2c1OCO2	168 to 169 °C
CCc1nc(Cl)c2sccc2n1	46 to 48 °C
COCCOc1ccc(CCC(=O)NS(=O)(=O)c2ccc(OC)cc2)c(Oc2ncc(C(F)(F)F)cc2Cl)c1	118 to 120 °C
COC1OC(CO)C(O)C(NC(=O)N(C)N=O)C1O (stereo unspecified)	116 to 117 °C
CCCCCCCCCCCCCCCCCC(=O)ON1C(C)(C)CC(OC(C)=O)CC1(C)C	55 to 58 °C
O=C(NCc1ccccn1)Nc1cc(N2CC3(CCCCC3)CC2=O)ccn1	191 to 192 °C
CCOC(=O)C(=O)Nc1nccc2snc(NC(=O)C(=O)OCC)c12	168 °C
CC(C)(C)OC(=O)N1C[C@@H](P(C2CCCCC2)C2CCCCC2)C[C@H]1CP(c1ccccc1)c1ccccc1	171 to 174 °C
COC(=NC(=O)N(C)C)NC(=O)NC(C)(C)C	96 to 98 °C
O=C(CN1C(=O)C2(COc3cc4c(cc32)CCO4)c2c(Cl)cccc21)Nc1ccccc1F (stereo unspecified)	243 to 245 °C
CCS(=O)(=O)CCC(=O)NNC(=O)N1Cc2ccccc2Oc2ccc(Cl)cc21	181 to 184 °C
CCN(CC)CCOc1ccc(Nc2ncc3c(n2)N(C)C(=O)N(C(C)C)C3)cc1	154 °C
COc1ccc(C[N+](=O)[O-])c(C=CC[N+](=O)[O-])c1OCc1ccccc1	149 to 150 °C

Other lines, results leading:

melting point	Compound
113 °C	COC(=O)c1cc(C)cc(Br)c1NS(=O)(=O)c1ccc(OC)cc1
120 to 121 °C	CC(C)Cn1nccc1-c1nn(-c2cccc(C(F)(F)F)c2)ccc1=O
> 280 °C	CCn1c(=O)c2[nH]c(/C=C/c3ccc(C)cc3)nc2n(CC)c1=O
207 to 210 °C	CCCc1nn(C)c2c(=O)[nH]c(Cc3cccc(N)c3)nc12
124 to 126 °C	Cc1c(CC(=O)OCCO[N+](=O)[O-])cc(-c2ccc(S(C)(=O)=O)cc2)n1-c1ccccc1
136 to 137 °C	Cc1nnc(-c2ccc3occ(-c4ccc(OS(=O)(=O)C(F)(F)F)cc4)c3c2)o1
269 °C	Cn1ncc2nc3cccc(F)c3c(Cl)c21
190 to 191 °C	CC1CCN(c2ccnc(NC(=O)NCc3ccccn3)c2)C1=O (stereo unspecified)
116 to 118 °C	Cn1c2ccccc2c2c3ccccc3ccc21
163 to 165 °C	COc1cccc(-c2nc(-c3ccccc3C=O)n[nH]2)c1
215 to 218 °C	COc1ccc(NC(=O)C2=C(O)c3ccccc3S(=O)(=O)N2C)ccc1=O
167 to 168 °C	CCOC(=O)C(=NO)c1ccccc1[N+](=O)[O-]
140 to 143 °C	Cc1nc(SCC(=O)c2cc(-c3ccc(C(F)(F)F)cc3)oc2C)sc1CC(=O)O
251 to 253 °C	CCn1cc(C(=O)O)c2nc3c(C)cccc3cc2c1=O
163 °C	COCCO[C@@H]1c2ccc3c(nc(C)n3C)c2O[C@H](c2ccccc2)[C@H]1O
195 to 197 °C	Cc1oc2cc(C3CCNC(=O)C3)ccc2c1C (stereo unspecified)
193 to 195 °C	O=C(O)c1cc(CCNS(=O)(=O)c2ccccc2)c2cccccc1-2
250 °C	COc1ccc2c(c1)c(=O)[nH]c1c2c2ccccc2n1C
> 250 °C	CCOC(=O)Cn1c(=O)c(=O)[nH]c2ccc3ccc(-n4ccc(CNC(=O)c5ccccc5)c4)cc3c21
150 °C	O=C(CC(O)c1ccncc1)c1ccccc1O (stereo unspecified)
165 to 166 °C	Cc1c(NC(=O)c2cc3c(s2)C(O)CCC3)cccc1-c1cn(C)c(=O)c(Nc2ccc(C3C(=O)N(C)CCN3C)cc2)n1 (stereo unspecified)
256 to 258 °C	Cc1cc2c(=O)n3cc(C#N)ccc3nc2s1
71.8 to 71.9 °C	CSc1c(F)cc(CC(=O)c2ccccc2)cc1F
184 to 185 °C	Cc1cc(OCC(=O)O)cc(C)c1SCc1sc(-c2ccc(C(F)(F)F)cc2)nc1C
118 to 120 °C	COC(=O)c1oc2cc(S)ccc2c1C
140 to 143 °C	CCOC(=O)C(=Cc1ccccc1)S(=O)(=O)NC(=O)Nc1nc(OC)cc(OC)n1
111 to 113 °C	CCCCn1c(=O)c2c(nc(C)n2S(=O)(=O)c2ccc(C)cc2)n(CCCC)c1=O
141 to 143 °C	CCCCc1nc2c(N)nc3ccccc3c2n1CCCCC(=O)N1CCOCC1
45 °C	CCCCc1nc(Sc2ccccc2)c(CO)[nH]1
160 to 162 °C	Cc1ccc(Cc2cnc(NCCCCc3ncc(I)cc3C)[nH]c2=O)cn1
